Measurements reported in patent publication US10532066B2, “Surfactant lipids, compositions thereof, and uses thereof” (National Jewish Health, priority 2007, dated 2020).
“Also recorded” adds a separate entry of the source.

Experiments:
TLR1 = molecular target: T1, TLR1 (Mus musculus, UniProt Q9EPQ1); assay: TLR agonist TNFα production in RAW 264.7 cells, TLR1; assay type: cell-based; details: Pam3Cys, 24 h
T1 construct: endogenous in cells; host or cells: RAW 264.7
Protocol: (§1) In this experiment, multiple TLRs were stimulated with defined TLR agonists for 24 h and the TNFα production was measured. In each case, the maximal stimulation by agonist is set at 100% and the antagonism by POPG is expressed as the relative % response. The Controls consist of no treatment, or treatment with POPG in the absence of agonist as indicated. The agonists for the TLRs consist of Pam3Cys for TLR1/2, Mycoplasma pneumoniae membranes as an agonist for TLR2, mycoplasma derived MALP2 as an agonist for TLR 2/6, double stranded RNA (poly IC) for TLR3, Gram-negative lipopolysaccharide for TLR4, and CpG rich DNA as an agonist for TLR9. The TLR4 panel also contains the antagonist polymyxin B (PB) for comparison with POPG.

[1] = tested on: Respiratory Syncytial Virus (RSV); assay: RSV-induced cytokine production in BEAS2B cells; assay type: cell-based
[2] = tested on: Respiratory Syncytial Virus (RSV); assay: RSV-induced cytokine production in NHBE cells; assay type: cell-based
RSV [3] = assay: RSV plaque progression in Hep2 monolayers, lipid in agar overlay; assay type: cell-based, Respiratory Syncytial Virus (RSV); details: lipid in agar overlay 5 hours after virus, POPG 200-500 ug/ml, POPC 500 ug/ml, 5 days
Protocol: Monolayers of Hep2 cells were subjected to RSV infection at levels that produce ca 100 plaques per well in quantitative plaque assays. The virus was incubated with the cells for 5 hours prior to agar overlay. The agar overlays contained either no additions, or POPG (200-500 ug/ml) or POPC (500 ug/ml).
The effects of POPG upon plaque formation as shown in Panel a of FIG. 39 were quantified in 3 independent experiments and are presented in this figure. The left panel of FIG. 40 provides the numbers of definite, and minute indefinite plaques formed in the absence and presence of POPG (200-500 ug/ml) as indicated. The right panel of FIG. 40 provides the numbers of definite plaques observed in the absence and presence of either POPG or POPC (200-500 ug/ml) as indicated.

RAW264.7 cells = assay: BODIPY-LPS association with RAW264.7 macrophages (FACScan); assay type: cell-based; details: BODIPY-LPS 1 μg/ml, liposomes 200 μg/ml, 4 h
Protocol: FIG. 11. Anionic phospholipids block BODIPY-LPS association with RAW264.7 macrophages. Liposomes were prepared by bath-sonication at room temperature for 30 min. RAW264.7 cells (10^6/tube) were incubated either without or with 1 μg/ml BODIPY-LPS in the presence or absence of liposomes (200 μg/ml) at 4° C. for 4 h. Subsequently the cells were washed by centrifugation and the cell associated fluorescence was quantified by FACScan. […] In panel B the mean fluorescence intensity (MFI) ratio of cells plus LPS/cells without LPS is plotted against different phospholipid treatments. Values shown in B are means±SE for three independent experiments with duplicate determinations in each experiment. Significance—* p<0.05, ** p<0.01
RAW264.7 cells (10^6) were incubated with BODIPY-LPS (1 μg/ml) either with or without phospholipid liposomes (200 μg/ml) at 4° C. for 4 h. When liposomes were added, […] preceded the addition of fluorescent LPS. After the cells were washed with PBS by centrifugation, cell adherent fluorescence was determined using FACScan. Macrophages were counted for 20,000 cells and the graph was made by CellQuest software.

TLR9 = molecular target: T2, TLR9 (Mus musculus, UniProt Q9EQU3); assay: TLR agonist TNFα production in RAW 264.7 cells, TLR9; assay type: cell-based; details: CpG rich DNA, 24 h
T2 construct: endogenous in cells; host or cells: RAW 264.7
T2 sequence (Q9EQU3 26-1032): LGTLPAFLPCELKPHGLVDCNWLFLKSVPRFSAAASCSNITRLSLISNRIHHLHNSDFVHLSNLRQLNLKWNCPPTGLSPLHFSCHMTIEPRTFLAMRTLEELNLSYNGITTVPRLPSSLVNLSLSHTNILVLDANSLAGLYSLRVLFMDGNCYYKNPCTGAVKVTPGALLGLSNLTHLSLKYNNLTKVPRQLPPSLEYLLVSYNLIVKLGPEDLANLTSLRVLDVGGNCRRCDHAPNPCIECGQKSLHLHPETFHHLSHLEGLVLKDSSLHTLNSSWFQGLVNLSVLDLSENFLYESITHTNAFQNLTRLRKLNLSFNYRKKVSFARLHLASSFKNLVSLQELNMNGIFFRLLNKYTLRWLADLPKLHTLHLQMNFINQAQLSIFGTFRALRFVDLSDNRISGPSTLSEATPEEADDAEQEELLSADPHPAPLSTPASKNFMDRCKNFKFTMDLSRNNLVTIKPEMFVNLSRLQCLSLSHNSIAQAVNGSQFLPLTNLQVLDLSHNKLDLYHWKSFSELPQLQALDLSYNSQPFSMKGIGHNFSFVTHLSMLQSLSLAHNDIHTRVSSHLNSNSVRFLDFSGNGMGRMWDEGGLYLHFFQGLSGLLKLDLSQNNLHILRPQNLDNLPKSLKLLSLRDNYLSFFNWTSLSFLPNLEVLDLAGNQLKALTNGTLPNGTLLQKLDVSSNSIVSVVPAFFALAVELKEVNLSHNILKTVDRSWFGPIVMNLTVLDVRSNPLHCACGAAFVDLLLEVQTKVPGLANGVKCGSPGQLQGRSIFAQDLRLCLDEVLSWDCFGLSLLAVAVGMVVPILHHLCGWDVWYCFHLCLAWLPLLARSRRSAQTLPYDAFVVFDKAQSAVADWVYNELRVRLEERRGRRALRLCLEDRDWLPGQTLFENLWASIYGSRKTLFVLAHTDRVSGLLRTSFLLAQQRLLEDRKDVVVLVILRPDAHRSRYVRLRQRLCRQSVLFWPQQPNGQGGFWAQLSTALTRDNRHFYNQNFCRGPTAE
Protocol: as §1

[4] = tested on: Respiratory Syncytial Virus (RSV); assay: RSV replication in NHBE cells (anti-RSV antibody staining); assay type: cell-based; details: multiplicity 3, 72 h, POPG 200 ug/ml
Protocol: Monolayers of BEAS2B and NHBE cells were infected with RSV at a multiplicity of 3 for 72 h. Infections were performed on cells in either the absence or the presence of POPG (200 ug/ml). The cell monolayers were fixed and stained with goat anti-human RSV antibody conjugated with horseradish peroxidase. The presence of the antibody was detected with diaminobenzamidine. Controls consisted of cell layers not exposed to the virus or exposed to POPG in the absence of virus as indicated.

RSV [5] = assay: RSV binding to solid phase phospholipids (ELISA); parameters: species or system Respiratory Syncytial Virus (RSV); details: 10 ug lipid per well, varying RSV
Protocol: Solid phase phospholipids (10 ug) were adsorbed to microtiter wells by evaporation of ethanol solvent. The wells were blocked with albumin and exposed to varying concentrations of RSV as shown in the left panel of FIG. 37. The wells were washed 3 times with phosphate buffered saline and the bound virus was detected by ELISA using polyclonal rabbit anti-RSV.

TLR2 = TLR2 (Homo sapiens, UniProt O60603); assay: TLR agonist IL-8 production in primary human neutrophils, TLR2; assay type: cell-based; parameters: endogenous in cells; host or cells: primary human neutrophils; details: Pam3Cys, 5-24 h
Sequence of TLR2 (O60603 21-784): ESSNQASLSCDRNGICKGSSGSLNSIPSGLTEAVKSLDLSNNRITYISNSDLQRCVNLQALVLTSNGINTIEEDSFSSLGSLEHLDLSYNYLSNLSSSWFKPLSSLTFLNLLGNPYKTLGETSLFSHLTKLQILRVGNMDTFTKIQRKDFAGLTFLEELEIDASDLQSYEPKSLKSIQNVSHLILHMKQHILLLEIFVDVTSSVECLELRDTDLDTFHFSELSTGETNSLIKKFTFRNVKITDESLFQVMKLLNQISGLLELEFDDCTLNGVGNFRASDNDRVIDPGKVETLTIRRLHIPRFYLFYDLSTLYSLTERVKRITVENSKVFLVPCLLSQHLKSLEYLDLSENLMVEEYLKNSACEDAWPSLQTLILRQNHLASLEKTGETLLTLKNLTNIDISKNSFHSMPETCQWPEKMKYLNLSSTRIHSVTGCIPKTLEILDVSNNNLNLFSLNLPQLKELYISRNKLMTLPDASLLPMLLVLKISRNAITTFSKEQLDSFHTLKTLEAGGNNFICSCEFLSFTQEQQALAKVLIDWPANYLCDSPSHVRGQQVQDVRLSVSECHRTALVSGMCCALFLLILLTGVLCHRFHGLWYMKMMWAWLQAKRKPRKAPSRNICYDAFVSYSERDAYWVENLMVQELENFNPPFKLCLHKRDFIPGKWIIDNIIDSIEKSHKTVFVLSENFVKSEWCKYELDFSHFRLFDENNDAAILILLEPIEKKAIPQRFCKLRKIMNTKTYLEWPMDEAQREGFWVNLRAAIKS
Protocol: (§2) In this experiment, multiple TLRs were stimulated with defined TLR agonists for 5-24 h as indicated, and the IL-8 production was measured. In each case the maximal stimulation by agonist is set at 100% and the antagonism by POPG is expressed as the relative % response. The Controls consist of no treatment, or treatment with POPG, in the absence of agonist as indicated. The agonists for the TLRs consist of Pam3Cys for TLR1/2, double stranded RNA (poly IC) for TLR3, Gram-negative lipopolysaccharide (LPS) for TLR4, and single stranded RNA (polyU) for TLR7/8.

multiple TLRs = assay: Activation of RAW 264.7 macrophages by multiple TLRs (TNFα, Example 8); assay type: cell-based; details: 200 ug/ml POPG, 5 hours
influenza-A virus H3N2 [6] = assay type: cell-based; details: BEAS2B, multiplicities 1-10, 24, 48 and 72 h, 200 ug/ml POPG added 30 minutes prior
TLR7 = assay: TLR agonist IL-8 production in primary human neutrophils, TLR7; assay type: cell-based; details: polyU, 5-24 h
Protocol: as §2

influenza-A virus H3N2 [7] = assay: Influenza-A cytopathic effects and cell death in BEAS2B cells; assay type: cell-based; details: 72 h, 200 ug/ml POPG
TLR4 = assay: TLR agonist TNFα production in RAW 264.7 cells, TLR4; assay type: cell-based; details: lipopolysaccharide, 24 h
Protocol: as §1

TLR3 = molecular target: T3, TLR3 (Mus musculus, UniProt Q99MB1); assay: TLR agonist TNFα production in RAW 264.7 cells, TLR3; assay type: cell-based; details: poly IC, 24 h
T3 construct: endogenous in cells; host or cells: RAW 264.7
T3 sequence (Q99MB1 26-905): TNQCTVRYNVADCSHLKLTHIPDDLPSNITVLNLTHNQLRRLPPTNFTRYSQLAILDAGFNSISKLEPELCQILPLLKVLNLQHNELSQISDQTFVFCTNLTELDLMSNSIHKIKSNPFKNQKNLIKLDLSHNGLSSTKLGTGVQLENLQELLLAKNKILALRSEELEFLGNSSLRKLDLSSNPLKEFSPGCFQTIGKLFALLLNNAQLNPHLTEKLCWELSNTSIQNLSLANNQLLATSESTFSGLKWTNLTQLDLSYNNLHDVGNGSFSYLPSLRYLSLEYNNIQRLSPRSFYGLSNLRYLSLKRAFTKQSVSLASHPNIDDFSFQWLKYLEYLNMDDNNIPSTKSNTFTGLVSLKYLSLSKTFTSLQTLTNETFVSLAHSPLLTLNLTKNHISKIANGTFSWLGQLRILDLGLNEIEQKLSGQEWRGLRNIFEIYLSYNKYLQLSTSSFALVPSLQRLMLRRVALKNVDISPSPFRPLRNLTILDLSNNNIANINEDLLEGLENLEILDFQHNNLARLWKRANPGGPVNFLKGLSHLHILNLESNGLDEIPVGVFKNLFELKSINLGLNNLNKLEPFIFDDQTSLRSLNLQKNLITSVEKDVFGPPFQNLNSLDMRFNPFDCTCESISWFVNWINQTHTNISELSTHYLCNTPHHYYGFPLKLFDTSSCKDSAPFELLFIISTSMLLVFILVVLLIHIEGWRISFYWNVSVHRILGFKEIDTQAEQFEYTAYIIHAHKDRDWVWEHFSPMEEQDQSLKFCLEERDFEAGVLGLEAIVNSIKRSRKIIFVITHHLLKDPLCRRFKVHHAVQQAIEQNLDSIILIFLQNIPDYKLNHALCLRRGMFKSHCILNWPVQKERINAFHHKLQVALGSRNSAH
Protocol: as §1

[8] = RSV multiplicity 0.5-1, 48 h, 200 ug/ml
[9] = RSV multiplicity 3, 48 h, lipid 200 ug/ml

T1 sequence (Q9EPQ1 26-795): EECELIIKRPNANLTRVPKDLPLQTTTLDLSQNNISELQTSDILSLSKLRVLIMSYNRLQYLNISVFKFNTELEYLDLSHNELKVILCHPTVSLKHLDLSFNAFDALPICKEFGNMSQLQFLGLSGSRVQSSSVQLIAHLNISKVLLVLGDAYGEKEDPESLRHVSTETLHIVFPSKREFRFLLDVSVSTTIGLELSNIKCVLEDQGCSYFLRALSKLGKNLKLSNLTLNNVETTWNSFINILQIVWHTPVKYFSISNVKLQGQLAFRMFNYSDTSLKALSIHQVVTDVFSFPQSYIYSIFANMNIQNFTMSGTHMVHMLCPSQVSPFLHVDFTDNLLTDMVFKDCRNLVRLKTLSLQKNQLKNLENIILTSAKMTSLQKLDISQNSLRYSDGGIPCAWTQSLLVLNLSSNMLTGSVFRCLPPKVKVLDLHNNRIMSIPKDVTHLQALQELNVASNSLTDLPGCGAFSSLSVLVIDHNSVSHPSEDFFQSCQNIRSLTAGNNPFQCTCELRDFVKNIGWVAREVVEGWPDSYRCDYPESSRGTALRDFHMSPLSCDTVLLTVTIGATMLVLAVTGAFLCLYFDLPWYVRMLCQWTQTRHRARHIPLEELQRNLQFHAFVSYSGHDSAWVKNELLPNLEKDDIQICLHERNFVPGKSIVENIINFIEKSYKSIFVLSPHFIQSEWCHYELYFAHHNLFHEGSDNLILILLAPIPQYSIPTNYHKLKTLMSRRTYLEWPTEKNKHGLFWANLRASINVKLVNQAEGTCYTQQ

| Compound | activity of TLR1 (TNFα production) (TLR1) | IL-8 production, varying concentrations of POPG ([1]; RSV multiplicity 0.5, 48 hours) | inflammatory cytokine production (IL-6, IL-8) [1, 8] | IL-6 production [1, 9] | IL-8 production [1, 9] | inflammatory cytokine production (IL-6, IL-8) [2, 8] | IL-6 production [2, 9] | IL-8 production [2, 9] | progression of RSV infection (plaques) (RSV [3]) | binding of BODIPY-LPS to the surface of macrophages (RAW264.7 cells) | activity of TLR9 (TNFα production) (TLR9) | viral replication [4] | binding of RSV to solid phase phospholipid (RSV [5]) | activity of TLR2 (IL-8 production) (TLR2) | activation of RAW 264.7 macrophages by multiple TLRs (TNFα) (multiple TLRs) | influenza-A induced IL-8 production (influenza-A virus H3N2 [6]) | activity of TLR7 (IL-8 production) (TLR7) | cell death induced by influenza A infection (influenza-A virus H3N2 [7]) | activity of TLR4 (TNFα production) (TLR4) | activity of TLR3 (TNFα production) (TLR3) |
| --- | --- | --- | --- | --- | --- | --- | --- | --- | --- | --- | --- | --- | --- | --- | --- | --- | --- | --- | --- | --- |
| CCCCCCCC/C=C\CCCCCCCC(=O)O[C@H](COC(=O)CCCCCCCCCCCCCCC)COP(=O)(O)OCC(O)CO (stereo partly drawn) [POPG, palmitoyl-oleoyl-phosphatidylglycerol] | inhibits | inhibits IL-8 production from epithelial cells in a concentration-dependent manner | suppresses | inhibits | inhibits | suppresses | inhibits | inhibits | arrests the progression; also recorded: indefinite minute plaques | blocks the binding | not | prevents viral replication | binds RSV with high affinity and specificity | inhibits | inhibits activation | suppresses | inhibits | prevents cell death | inhibits | inhibits |
| phosphatidylinositol [PI] | – | – | – | – | – | – | – | – | – | blocks the binding | – | – | – | – | – | – | – | – | – | – |
